≈ marks a conversion by molar mass, not a printed value.
Columns and labels:
K562 = test: Growth inhibition of human K562 cells assessed as cell growth at 10^-5 M incubated for 48 hrs by sulforhodamine B assay relative to control; type: cell-based; parameters: scale not given: the % may be the effect or the level left; conditions: k562, 48 h, 10 µM
OVCAR-5 = test: Growth inhibition of human OVCAR5 cells assessed as cell growth at 10^-5 M incubated for 48 hrs by sulforhodamine B assay relative to control; type: cell-based; parameters: scale not given: the % may be the effect or the level left; conditions: ovcar-5, 48 h, 10 µM
786-0 = test: Growth inhibition of human 786-0 cells assessed as cell growth at 10^-5 M incubated for 48 hrs by sulforhodamine B assay relative to control; type: cell-based; parameters: scale not given: the % may be the effect or the level left; conditions: 786-0, 48 h, 10 µM
[1] = Selectivity index, ratio of GI50 for mouse RAW264.7 cells to MIC for Mycobacterium aurum infected in mouse RAW264.7 cells; type: toxicity, cell-based; conditions: read-out: Selectivity Index
A498 = test: Growth inhibition of human A498 cells assessed as cell growth at 10^-5 M incubated for 48 hrs by sulforhodamine B assay relative to control; type: cell-based; parameters: scale not given: the % may be the effect or the level left; conditions: a498, 48 h, 10 µM
NCI-H226 = test: Growth inhibition of human NCI-H226 cells assessed as cell growth at 10^-5 M incubated for 48 hrs by sulforhodamine B assay relative to control; type: cell-based; parameters: scale not given: the % may be the effect or the level left; conditions: nci-h226, 48 h, 10 µM
HCC 2998 = test: Growth inhibition of human HCC2998 cells assessed as cell growth at 10^-5 M incubated for 48 hrs by sulforhodamine B assay relative to control; type: cell-based; parameters: scale not given: the % may be the effect or the level left; conditions: hcc 2998, 48 h, 10 µM
EKVX = test: Growth inhibition of human EKVX cells assessed as cell growth at 10^-5 M incubated for 48 hrs by sulforhodamine B assay relative to control; type: cell-based; parameters: scale not given: the % may be the effect or the level left; conditions: 10 µM
OVCAR-4 = test: Growth inhibition of human OVCAR4 cells assessed as cell growth at 10^-5 M incubated for 48 hrs by sulforhodamine B assay relative to control; type: cell-based; parameters: scale not given: the % may be the effect or the level left; conditions: ovcar-4, 48 h, 10 µM
Escherichia coli = test: Antibacterial activity against Escherichia coli RCMB 010052 assessed as diameter of zone inhibition after 24 hrs by agar well diffusion assay; type: functional
MDA-MB-468 = test: Growth inhibition of human MDA-MB-468 cells assessed as cell growth at 10^-5 M incubated for 48 hrs by sulforhodamine B assay relative to control; type: cell-based; parameters: scale not given: the % may be the effect or the level left; conditions: mda-mb-468, 48 h, 10 µM
U-251 = test: Growth inhibition of human U251 cells assessed as cell growth at 10^-5 M incubated for 48 hrs by sulforhodamine B assay relative to control; type: cell-based; parameters: scale not given: the % may be the effect or the level left; conditions: u-251, 48 h, 10 µM
SR = test: Growth inhibition of human SR cells assessed as cell growth at 10^-5 M incubated for 48 hrs by sulforhodamine B assay relative to control; type: cell-based; parameters: scale not given: the % may be the effect or the level left; conditions: 10 µM
UO-31 = test: Growth inhibition of human UO31 cells assessed as cell growth at 10^-5 M incubated for 48 hrs by sulforhodamine B assay relative to control; type: cell-based; parameters: scale not given: the % may be the effect or the level left; conditions: uo-31, 48 h, 10 µM
[2] = Cytotoxicity against mouse RAW264.7 cells; type: cell-based
SN12C = test: Growth inhibition of human SN12C cells assessed as cell growth at 10^-5 M incubated for 48 hrs by sulforhodamine B assay relative to control; type: cell-based; parameters: scale not given: the % may be the effect or the level left; conditions: 10 µM
A549 = test: Growth inhibition of human A549 cells assessed as cell growth at 10^-5 M incubated for 48 hrs by sulforhodamine B assay relative to control; type: cell-based; parameters: scale not given: the % may be the effect or the level left; conditions: a549, 48 h, 10 µM
[3] = test system: Mycobacterium tuberculosis; test: Potency index, ratio of isoniazid MIC to compound MIC for antitubercular activity against Mycobacterium tuberculosis RCMB 010126 clinical isolate; type: functional
MDA-MB-435 = test: Growth inhibition of human MDA-MB-435 cells assessed as cell growth at 10^-5 M incubated for 48 hrs by sulforhodamine B assay relative to control; type: cell-based; parameters: scale not given: the % may be the effect or the level left; conditions: mda-mb-435, 48 h, 10 µM
RPMI-8226 = test: Growth inhibition of human RPMI8226 cells assessed as cell growth at 10^-5 M incubated for 48 hrs by sulforhodamine B assay relative to control; type: cell-based; parameters: scale not given: the % may be the effect or the level left; conditions: rpmi-8226, 48 h, 10 µM
NCI-H522 = test: Growth inhibition of human NCI-H522 cells assessed as cell growth at 10^-5 M incubated for 48 hrs by sulforhodamine B assay relative to control; type: cell-based; parameters: scale not given: the % may be the effect or the level left; conditions: nci-h522, 48 h, 10 µM
RXF 393 = test: Growth inhibition of human RXF393 cells assessed as cell growth at 10^-5 M incubated for 48 hrs by sulforhodamine B assay relative to control; type: cell-based; parameters: scale not given: the % may be the effect or the level left; conditions: rxf 393, 48 h, 10 µM
SF-268 = test: Growth inhibition of human SF268 cells assessed as cell growth at 10^-5 M incubated for 48 hrs by sulforhodamine B assay relative to control; type: cell-based; parameters: scale not given: the % may be the effect or the level left; conditions: sf-268, 48 h, 10 µM
TK-10 = test: Growth inhibition of human TK10 cells assessed as cell growth at 10^-5 M incubated for 48 hrs by sulforhodamine B assay relative to control; type: cell-based; parameters: scale not given: the % may be the effect or the level left; conditions: tk-10, 48 h, 10 µM
[4] = Selectivity index, ratio of IC50 for human WI38 cells to MIC for Mycobacterium tuberculosis RCMB 010126 clinical isolate; type: toxicity; conditions: read-out: Selectivity Index
M14 = test: Growth inhibition of human M14 cells assessed as cell growth at 10^-5 M incubated for 48 hrs by sulforhodamine B assay relative to control; type: cell-based; parameters: scale not given: the % may be the effect or the level left; conditions: m14, 48 h, 10 µM
NCI-H23 = test: Growth inhibition of human NCI-H23 cells assessed as cell growth at 10^-5 M incubated for 48 hrs by sulforhodamine B assay relative to control; type: cell-based; parameters: scale not given: the % may be the effect or the level left; conditions: nci-h23, 48 h, 10 µM
SK-MEL-28 = test: Growth inhibition of human SK-MEL-28 cells assessed as cell growth at 10^-5 M incubated for 48 hrs by sulforhodamine B assay relative to control; type: cell-based; parameters: scale not given: the % may be the effect or the level left; conditions: sk-mel-28, 48 h, 10 µM
NCI-H460 = test: Growth inhibition of human NCI-H460 cells assessed as cell growth at 10^-5 M incubated for 48 hrs by sulforhodamine B assay relative to control; type: cell-based; parameters: scale not given: the % may be the effect or the level left; conditions: nci-h460, 48 h, 10 µM
SF-539 = test: Growth inhibition of human SF539 cells assessed as cell growth at 10^-5 M incubated for 48 hrs by sulforhodamine B assay relative to control; type: cell-based; parameters: scale not given: the % may be the effect or the level left; conditions: sf-539, 48 h, 10 µM
Staphylococcus aureus = test: Antibacterial activity against Staphylococcus aureus RCMB 010028 assessed as diameter of zone inhibition after 24 hrs by agar well diffusion assay; type: functional
Candida albicans = test: Antifungal activity against Candida albicans RCMB 05036 after 24 hrs by serial dilution method; type: functional; conditions: RCMB 05036, 24 h
SK-MEL-2 = test: Growth inhibition of human SK-MEL-2 cells assessed as cell growth at 10^-5 M incubated for 48 hrs by sulforhodamine B assay relative to control; type: cell-based; parameters: scale not given: the % may be the effect or the level left; conditions: sk-mel-2, 48 h, 10 µM
HL-60(TB) = test: Growth inhibition of human HL-60(TB) cells assessed as cell growth at 10^-5 M incubated for 48 hrs by sulforhodamine B assay relative to control; type: cell-based; parameters: scale not given: the % may be the effect or the level left; conditions: 10 µM
Mycolicibacterium aurum = test: Antitubercular activity against Mycobacterium aurum infected in mouse RAW264.7 cells measured after 48 hrs; type: functional

## CC(=O)c1sc(/N=C2\NC(=O)/C(=C3/C(=O)N(C)c4ccc(Cl)cc43)S2)nc1C
K562
  Activity: 100.75%
OVCAR-5
  Activity: 104.59%
786-0
  Activity: 106.86%
[1]
  selectivity ratio: 5
A498
  Activity: 104.41%
NCI-H226
  Activity: 94.2%
HCC 2998
  Activity: 112.5%
EKVX
  Activity: 95.78%
OVCAR-4
  Activity: 94.35%
Escherichia coli
  diameter of the inhibition zone (DIZ): 25.1 mm
MDA-MB-468
  Activity: 94.2%
U-251
  Activity: 113.76%
SR
  Activity: 115.03%
UO-31
  Activity: 90.16%
[2]
  GI50: 125 µg/mL (≈ 289 µM)
SN12C
  Activity: 96.85%
A549
  Activity: 105.29%
[3]
  Ratio: 2
MDA-MB-435
  Activity: 101.04%
RPMI-8226
  Activity: 110.22%
NCI-H522
  Activity: 88.75%
RXF 393
  Activity: 106.08%
SF-268
  Activity: 98.04%
TK-10
  Activity: 118.37%
[4]
  selectivity ratio: 50
M14
  Activity: 100.08%
NCI-H23
  Activity: 96.3%
SK-MEL-28
  Activity: 99.13%
NCI-H460
  Activity: 113.18%
SF-539
  Activity: 94.05%
Staphylococcus aureus
  diameter of the inhibition zone (DIZ): 22.4 mm
Candida albicans
  MIC: 0.49 µg/mL (≈ 1.13 µM)
SK-MEL-2
  Activity: 99.78%
HL-60(TB)
  Activity: 98.79%
Mycolicibacterium aurum
  MIC: 25 µg/mL (≈ 57.7 µM)

## CCOC(=O)c1sc(/N=C2\NC(=O)/C(=C3/C(=O)N(Cc4ccccc4)c4ccc(Cl)cc43)S2)nc1C
K562
  Activity: 101.93%
OVCAR-5
  Activity: 112.65%
786-0
  Activity: 103.02%
[1]
  selectivity ratio: 1.25
A498
  Activity: 104.48%
NCI-H226
  Activity: 94.7%
HCC 2998
  Activity: 109.14%
EKVX
  Activity: 100.9%
OVCAR-4
  Activity: 110.06%
Escherichia coli
  diameter of the inhibition zone (DIZ): 23.4 mm
MDA-MB-468
  Activity: 108.31%
U-251
  Activity: 99.74%
SR
  Activity: 102.18%
UO-31
  Activity: 91.72%
[2]
  GI50: 62.5 µg/mL (≈ 116 µM)
SN12C
  Activity: 102.35%
A549
  Activity: 97.17%
[3]
  Ratio: 2
MDA-MB-435
  Activity: 107.3%
RPMI-8226
  Activity: 99.02%
NCI-H522
  Activity: 90.82%
RXF 393
  Activity: 105.33%
SF-268
  Activity: 93.91%
TK-10
  Activity: 97.92%
[4]
  selectivity ratio: 133
M14
  Activity: 98.8%
NCI-H23
  Activity: 96.32%
SK-MEL-28
  Activity: 113.38%
NCI-H460
  Activity: 101.98%
SF-539
  Activity: 99.4%
Staphylococcus aureus
  diameter of the inhibition zone (DIZ): 22.5 mm
Candida albicans
  MIC: 1.95 µg/mL (≈ 3.62 µM)
SK-MEL-2
  Activity: 100.66%
HL-60(TB)
  Activity: 105.41%
Mycolicibacterium aurum
  MIC: 50 µg/mL (≈ 92.8 µM)
